The source of these data is patent US8440674B2, “Substituted pyrimidine compounds as RAF inhibitors and methods of use” (Amgen Inc., priority 2005, dated 2013).

Where two headings read alike, the source gives them in different places.

The test system of assay [1] is A375 cells, a human melanoma cell line having the V600E mutant Braf. Nature of the assay: B-Raf cell-based assay (ratio of phospho-ERK1/2 to total ERK1/2). The note with it: A-375, 1 h, P-ERK/total ERK, 60 minute incubation, read-out: IC50 for the inhibition of B-raf as measured by the cell-based assay. The protocol: A cell-based assay was optimized to assay the ability of compounds to inhibit Braf activity in a whole cell context. […] The cell-based assay quantifies the ratio of phospho-ERK1/2 to total ERK1/2 and can thereby assay the cellular inhibition of Braf kinase activity.
A375 cells are plated into 96 well plates and grown to confluence. The cells are then changed into starve media (DMEM/0.1% BSA) for 60 minutes. Compounds in DMSO dose curves are then diluted in starve media and added to cells. […] After a 60 minute incubation the cells are fixed for 20 minutes at room temperature in 4% formaldehyde with 0.1%Triton X-100, protease and phosphatase inhibitors in PBS. The cells are washed four times in PBS then blocked for 60 minutes using a one to one mix of Odyssey blocking buffer (Li-Cor Biosciences, Inc) and PBS. Primary antibodies (rabbit anti-phospho p42/p44 MAPK (P-ERK1/2) from Cell Signaling Technology and mouse anti-ERK2 from Santa Cruz Biotechnology) are diluted in blocking buffer, added to the cells and incubated overnight at 4° C. The cells are then washed four times in PBS/0.1% Tween-20. Secondary antibodies (anti-mouse IRDye 800CW from Rockland, Inc and anti-rabbit AlexaFlour680 from Molecular Probes) are diluted in blocking buffer/0.5% Tween and incubated on cells for 60 minutes. After 4 washes in PBS/0.1% Tween-20 the microplate is scanned on an Odyssey Infrared Imager (Li-Cor Bioscience) which can read the signal given by the two secondary antibodies on their respective channels. The ratio of P-ERK/total ERK is determined and IC50s generated using Excel-XLfit software.

The next assay has as its target recombinant HuBraf V600E (Homo sapiens, UniProt P15056, V600E). The assay can be described thus: B-raf Homogenous Time Resolved Fluorescent (HTRF) kinase assay. Format: biochemical. The note with it: substrate MEK1, 10 uM ATP; threshold lists; read-out: IC50 for the inhibition of B-raf as measured by the HTRF assay. The protocol: A Homogeneous Time Resolved Fluorescence (HTRF) kinase assay was established to assay the ability of compounds to inhibit human mutant Braf kinase activity on the substrate MEK1. […] The final concentration of the kinase reaction buffer is 50 mM Tris-HCL pH 7.5, 10 mM MgCl2, 0.5% glucose, 0.5 mM DTT, 0.01% BSA.
The detection reaction proceeds for one hour and is read on a RubyStar (BMG Labtech) counter. IC50s for the test compounds are generated using Excel-XLfit software.
(In general: Time-resolved FRET reads energy transfer from a long-lived donor to a nearby acceptor.)

recombinant HuBraf V600E, sequence (P15056 whole entry V600E): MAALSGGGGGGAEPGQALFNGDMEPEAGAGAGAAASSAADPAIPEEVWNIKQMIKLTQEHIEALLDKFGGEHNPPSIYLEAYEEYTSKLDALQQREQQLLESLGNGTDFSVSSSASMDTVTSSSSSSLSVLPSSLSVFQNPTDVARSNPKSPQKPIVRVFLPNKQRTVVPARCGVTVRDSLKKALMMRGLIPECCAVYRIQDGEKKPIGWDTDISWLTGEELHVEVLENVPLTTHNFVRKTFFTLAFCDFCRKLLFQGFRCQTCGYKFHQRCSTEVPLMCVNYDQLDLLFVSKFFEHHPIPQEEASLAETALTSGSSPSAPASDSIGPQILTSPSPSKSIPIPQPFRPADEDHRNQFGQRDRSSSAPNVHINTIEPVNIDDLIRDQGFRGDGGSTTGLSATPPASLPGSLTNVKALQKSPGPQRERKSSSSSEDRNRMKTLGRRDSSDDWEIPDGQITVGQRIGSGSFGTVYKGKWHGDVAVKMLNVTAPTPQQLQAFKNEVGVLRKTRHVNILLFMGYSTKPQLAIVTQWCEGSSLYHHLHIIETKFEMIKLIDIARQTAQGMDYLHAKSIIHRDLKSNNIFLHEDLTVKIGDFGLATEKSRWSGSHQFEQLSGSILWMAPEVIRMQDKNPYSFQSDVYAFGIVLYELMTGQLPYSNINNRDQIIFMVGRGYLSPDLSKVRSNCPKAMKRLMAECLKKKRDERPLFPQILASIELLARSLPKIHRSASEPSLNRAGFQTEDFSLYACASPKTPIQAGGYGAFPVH

On to `Cc1ccc2c(Nc3cccc(C(F)(F)F)c3)nccc2c1Nc1ncccc1-c1ccncn1` [Example 7, 6-methyl-N^5-(3-(4-pyrimidinyl)-2-pyridinyl)-N^1-(3-(trifluoromethyl)phenyl)-1,5-isoquinolinediamine], for which the figures for the IC50 (in assay [1] (threshold list); at recombinant HuBraf V600E) were at most 500 nM and at most 250 nM, respectively.
Taken in the same sequence, the figures for `COc1cc(Nc2nccc3c(Nc4ncccc4-c4ccncn4)cccc23)cc(C(F)(F)F)c1` [Example 8, N^1-(3-(methyloxy)-5-(trifluoromethyl)phenyl)-N^5-(3-(4-pyrimidinyl)-2-pyridinyl)-1,5-isoquinolinediamine] were at most 500 nM and at most 250 nM.
Turning to `Cc1ccc2c(Nc3ccccc3)nccc2c1Nc1ncccc1-c1ccncn1` [Example 9, 6-methyl-N^1-phenyl-N^5-(3-(4-pyrimidinyl)-2-pyridinyl)-1,5-isoquinolinediamine], the results for the IC50 (in assay [1] (threshold list); on recombinant HuBraf V600E) were at most 500 nM and at most 250 nM, respectively.
For `Cc1ccc2c(Nc3cccc(C(C)(C)C)c3)nccc2c1Nc1ncccc1-c1ccncn1` [Example 10, N^1-(3-(1,1-dimethylethyl)phenyl)-6-methyl-N^5-(3-(4-pyrimidinyl)-2-pyridinyl)-1,5-isoquinolinediamine] the same measures were at most 500 nM and at most 250 nM.
Taken in the same sequence, the figures for `Cc1ccc2c(Nc3cccc(N(C)C)c3)nccc2c1Nc1ncccc1-c1ccncn1` [Example 11, N^1-(3-(dimethylamino)phenyl)-6-methyl-N^5-(3-(4-pyrimidinyl)-2-pyridinyl)-1,5-isoquinolinediamine] were at most 500 nM and at most 250 nM.
For the molecule `Cc1ccc2c(Nc3cccc(C(C)C)c3)nccc2c1Nc1ncccc1-c1ccncn1` [Example 12, 6-methyl-N^1-(3-(1-methylethyl)phenyl)-N^5-(3-(4-pyrimidinyl)-2-pyridinyl)-1,5-isoquinolinediamine], the IC50 (usually the concentration needed to halve the response being measured) is at most 500 nM in assay [1] (threshold list) and at most 250 nM on recombinant HuBraf V600E.
Taken in the same sequence, the figures for `Cc1ccc2c(Nc3cccc(OC(C)C)c3)nccc2c1Nc1ncccc1-c1ccncn1` [Example 13, 6-methyl-N^1-(3-((1-methylethyl)oxy)phenyl)-N^5-(3-(4-pyrimidinyl)-2-pyridinyl)-1,5-isoquinolinediamine] were at most 500 nM and at most 250 nM.
Taken in the same sequence, the figures for `Cc1ccc2c(Nc3cccc(Cl)c3)nccc2c1Nc1ncccc1-c1ccncn1` [Example 14, N^1-(3-chlorophenyl)-6-methyl-N^5-(3-(4-pyrimidinyl)-2-pyridinyl)-1,5-isoquinolinediamine] were at most 500 nM and at most 250 nM.
Taken in the same sequence, the figures for `Cc1ccc2c(Nc3cc(C(C)(C)C)nn3C)nccc2c1Nc1ncccc1-c1ccncn1` [Example 15, N^1-(3-(1,1-dimethylethyl)-1-methyl-1H-pyrazol-5-yl)-6-methyl-N^5-(3-(4-pyrimidinyl)-2-pyridinyl)-1,5-isoquinolinediamine] were at most 500 nM and at most 250 nM.
Consider `Cc1ccc2c(Nc3ccc(C(C)(C)C)cc3)nccc2c1Nc1ncccc1-c1ccncn1` [Example 16, N^1-(4-(1,1-dimethylethyl)phenyl)-6-methyl-N^5-(3-(4-pyrimidinyl)-2-pyridinyl)-1,5-isoquinolinediamine], for which the IC50 was at most 500 nM in assay [1] (threshold list) and at most 250 nM on recombinant HuBraf V600E.
Taken in the same sequence, the figures for `CNc1nccc2c(Nc3ncccc3-c3ccncn3)c(C)ccc12` [Example 17, N^1-6-dimethyl-N^5-(3-(4-pyrimidinyl)-2-pyridinyl)-1,5-isoquinolinediamine] were at most 500 nM and at most 250 nM.
Taken in the same sequence, the figures for `Cc1ccc2c(Nc3cccc(OC(F)(F)F)c3)nccc2c1Nc1ncccc1-c1ccncn1` [Example 18, 6-methyl-N^5-(3-(4-pyrimidinyl)-2-pyridinyl)-N^1-(3-((trifluoromethyl)oxy)phenyl)-1,5-isoquinolinediamine] were at most 500 nM and at most 250 nM.
Taken in the same sequence, the figures for `COc1ccc(Nc2nccc3c(Nc4ncccc4-c4ccncn4)c(C)ccc23)cc1C(F)(F)F` [Example 19, 6-methyl-N^1-(4-(methyloxy)-3-(trifluoromethyl)phenyl)-N^5-(3-(4-pyrimidinyl)-2-pyridinyl)-1,5-isoquinolinediamine] were at most 500 nM and at most 250 nM.
As for `CNc1ncc2cc(-c3c(C)ccc4c(Nc5cccc(C(F)(F)F)c5)nccc34)ccc2n1` [Example 24, N-methyl-6-(6-methyl-1-((3-(trifluoromethyl)phenyl)amino)-5-isoquinolinyl)-2-quinazolinamine], the IC50 in assay [1] (threshold list) is at most 500 nM; on recombinant HuBraf V600E, at most 250 nM.
For `CNc1ncc2cc(-c3c(C)ccc4c(Nc5cccc(OC(C)C)c5)nccc34)ccc2n1` [Example 25, N-methyl-6-(6-methyl-1-((3-((1-methylethyl)oxy)phenyl)amino)-5-isoquinolinyl)-2-quinazolinamine] the same measures were at most 500 nM and at most 250 nM.
For `CNc1cc(-c2cccnc2Nc2c(C)ccc3c(Nc4cc(C(C)(C)C)nn4C)nccc23)ncn1` [Example 69, N^1-(3-tert-butyl-1-methyl-1H-pyrazol-5-yl)-6-methyl-N^5-(3-(6-(methylamino)pyrimidin-4-yl)pyridin-2-yl)isoquinoline-1,5-diamine], the IC50 in assay [1] (threshold lists) was at most 5000 nM.
`CNc1ncc2cc(-c3c(C)ccc4c(Nc5cccc(OC(F)(F)F)c5)nc(C)nc34)ccc2n1` [Example 86, 6-(2,7-dimethyl-4-(3-(trifluoromethoxy)phenylamino)quinazolin-8-yl)-N-methylquinazolin-2-amine]: in assay [1] (threshold lists), the IC50 is at most 5000 nM.
With `CNc1ncc2cc(-c3c(C)ccc4c(Nc5ccc(C#N)cc5)nccc34)ccc2n1` [Example 103], the 50% inhibitory concentration (IC50) in assay [1] (threshold list) was at most 500 nM; in assay [1] (threshold lists) it was at most 1000 nM.
Taken in the same sequence, the figures for `CNc1ncc2cc(-c3c(C)ccc4c(Nc5cccnc5)nn(C)c34)ccc2n1` [Example 163] were at most 500 nM and at most 1000 nM.
On to `CNc1ncc2cc(-c3c(C)ccc4c(Nc5cccc(C#N)c5)nn(C)c34)ccc2n1` [Example 196], for which the half-inhibitory concentration (IC50) in assay [1] (threshold list) is at most 500 nM.
On to `Cc1ccc(C(F)(F)F)cc1Nc1nccc2c(Nc3ncccc3-c3ccncn3)c(C)ccc12` [Example 344, 6-methyl-N1-(2-methyl-5-(trifluoromethyl)phenyl)-N5-(3-(pyrimidin-4-yl)pyridin-2-yl)isoquinoline-1,5-diamine], for which the IC50 at recombinant HuBraf V600E is at most 250 nM.
`CNc1cc(-c2cccnc2F)ncn1` [Example 345, 6-(2-fluoropyridin-3-yl)-N-methylpyrimidin-4-amine]: the IC50 in assay [1] (threshold list) was at most 500 nM; in assay [1] (threshold lists) it was at most 1000 nM.
On to `CNc1cc(-c2cccnc2Nc2c(C)ccc3c(Nc4cc(C(F)(F)F)ccc4C)nccc23)ncn1` [Example 349], for which the concentration for half-maximal inhibition (IC50) in assay [1] (threshold lists) is at most 5000 nM.
In the case of `CNc1ncc2cc(-c3c(C)ccc4c(Nc5cccc(C(F)(F)F)c5)nccc34)c(=O)n(C)c2n1` [Example 354, 8-methyl-6-(6-methyl-1-(3-(trifluoromethyl)phenylamino)isoquinolin-5-yl)-2-(methylamino)pyrido[2,3-d]pyrimidin-7(8H)-one], the IC50 in assay [1] (threshold lists) is at most 5000 nM.
With `CNc1ncc2cc(-c3cccc4c(Nc5cccc(C(F)(F)F)c5)nccc34)c(=O)n(C)c2n1` [Example 360], at recombinant HuBraf V600E, the half-maximal inhibitory concentration (IC50) is at most 250 nM.
Still for that read-out and setting: in the case of `Cc1ccc2c(Nc3cccc(C(F)(F)F)c3)nccc2c1-c1ccc2nc(N)ncc2c1` [Example 361, 6-(6-methyl-1-(3-(trifluoromethyl)phenylamino)isoquinolin-5-yl)quinazolin-2-amine] it was at most 250 nM; in that of `CNc1ncc2cc(-c3c(C)ccc4c(Nc5cncc(OC(C)C)c5)nccc34)ccc2n1` [Example 378, 6-(1-(5-isopropoxypyridin-3-ylamino)-6-methylisoquinolin-5-yl)-N-methylquinazolin-2-amine], at most 1000 nM.
With `CNc1nccc(-c2cccnc2Oc2c(C)ccc3c(Nc4cccc(OC(F)(F)F)c4)nccc23)n1` [Example 413, 6-methyl-5-(3-(2-(methylamino)pyrimidin-4-yl)pyridin-2-yloxy)-N-(3-(trifluoromethoxy)phenyl)isoquinolin-1-amine], the 50% inhibitory concentration (IC50) in assay [1] (threshold lists) was at most 5000 nM.
Same read-out and setting: in the case of `CNc1ncc2cc(-c3c(C)ccc4c(Nc5cccc(C(C)(C)O)c5)nncc34)ccc2n1` [Example 433, 2-(3-(6-methyl-5-(2-(methylamino)quinazolin-6-yl)phthalazin-1-ylamino)phenyl)propan-2-ol] it was at most 5000 nM.
With `CNc1ncc2cc(-c3c(C)ccc4c(Nc5ccc6c(c5)NC(=O)CC6(C)C)nnc(C)c34)ccc2n1` [Example 438], the half-inhibitory concentration (IC50) in assay [1] (threshold list) was at most 500 nM.
